From patent US7943128B2, “Anti-microbial compositions comprising a cationic peptide and a glycylglycine endopeptidase” (priority 2006, dated 2011)
Positions of bridges follow the written chain, without caps; N, C: chain ends. No end group written: not given here.

Key:
MRSA252 = experiment: Bactericidal assay, survivors after 30 minute exposure in TSB broth; format: cell-based, Staphylococcus aureus
Description: MRSA252 in TSB broth was exposed for 30 mins to either: increasing concentrations (0, 1, 2, 4, 6, 8 and 10 μg/ml) of ranalexin alone (filled squares); increasing concentrations (0.0, 0.01, 0.02, 0.04, 0.06, 0.08, 0.1 μg/ml) of lysostaphin alone (filled circles); or a combination of 8 μg/ml ranalexin with increasing concentrations (0.0, 0.01, 0.02, 0.04, 0.06, 0.08, 0.1 μg/ml) of lysostaphin. Total cell numbers, or survivors, after a 30 minute exposure to each of the above conditions were determined by serial dilution and plating on TSB agar. Survivors were determined after 24 hours incubation of the TSB plates at 37° C. and expressed as the log of colony forming units per ml of broth. The arrows on FIG. 7 indicate that the numbers of survivors were less than the minimum detectable by this method.

[1] = tested on: Staphylococcus aureus MRSA252 and Staphylococcus aureus MSSA476; experiment: Impregnated dried paper disks on TSA plates, zones of inhibition; format: cell-based; details: none at lower amounts
Description: Sterile Whatman paper disks were impregnated with ranalexin (0.5, 1, 2, 5, 10 or 20 μg), with lysostaphin (0.1, 0.2, 0.5, 1, 2 or 5 μg), a combination of 1 μg lysostaphin and ranalexin (0.5, 1, 2, 5, 10 or 20 μg), or a combination of 10 μg ranalexin and lysostaphin ([…], 0.5, 1, 2 or 5 μg). The paper disks were allowed to dry overnight and then stored at −20° C. until required.
Cultures of Staphylococcus aureus MRSA252 and Staphylococcus aureus MSSA476 were grown to mid-log phase (OD600 0.6-0.9) and diluted to 0.6 if necessary. 150 μl of the culture was then spread onto TSA (Tryptone Soya Agar; Oxoid, Basingstoke, UK) plates and allowed to dry. An impregnated paper disk prepared as described above was placed centrally on the agar plates. Plates were incubated for 20 hours at 37° C. before visual assessment of the zones of inhibition (see FIG. 8) which were visible as clear areas around the disks.

[2] = tested on: Staphylococcus aureus MSSA476; experiment: Microtitre plate growth inhibition in TSB, 48 hours, turbidity; format: cell-based
Description: (§1) Staphylococcus aureus strains MSSA476 (left) and MRSA252 (right) were cultivated in TSB (Tryptone Soya Broth; Oxoid Basingstoke, UK) to mid-exponential phase. Cultures were then diluted in fresh medium to a starting optical density of 600 nm of 0.001 (approximately 1.0×10^6 cells/ml). Growth of 100 μl volume cultures was measured in 96-well culture plates using TSB as control for 37° C. for 48 hours without shaking in the presence of 0 μg ranalexin/ml medium to 50 μg/ml, increasing stepwise by 5 μg/ml. 8 samples were cultivated for each concentration of ranalexin and to each such sample a different concentration of lysostaphin was added from 0 μg/ml to 1.05 μg/ml in steps of 0.15 μg/ml. The antibacterial activity was measured by reduced turbidity measured by optical density by scanning on an Image Scanner (GE Healthcare UK Ltd) using Image Master Labscan v.3 software. The concentration of ranalexin is indicated above the respective column, each well of a column having the same ranalexin concentration. The wells of each row contain lysostaphin at a final concentration of 0 μg lysostaphin per ml medium to 1.05 μg/ml (as indicated on left), increasing stepwise by 0.15 μg/ml. For S. aureus MSSA476 cultivated in the absence of lysostaphin, ranalexin provides an inhibitory effect at concentrations above 30 μg/ml medium (typically 35 to 40 μg/ml). […] The combination of ranalexin and lysostaphin reduces the necessary amount of each of the compounds by providing a synergistic antimicrobial effect.
(§2) Staphylococcus aureus strains MSSA476 (left) and MRSA252 (right) were cultivated in TSB medium as described in Example 1, except for the narrower concentration ranges of ranalexin and lysostaphin. Ranalexin is provided at concentrations of 0 μg/ml, 0.5 μg/ml and 1 μg/ml to 10 μg/ml, increasing stepwise by 1 μg/ml medium, and lysostaphin concentrations of 0 μg/ml to 0.2 μg/ml, with intermediate concentrations of 0.01 μg/ml, 0.025 μg/ml, 0.05 μg/ml, 0.075 μg/ml, 0.1 μg/ml and 0.15 μg/ml as indicated in FIG. 2.

[3] = tested on: Staphylococcus aureus MRSA252; experiment: as above; format: cell-based; details: for concentration needed for inhibition, compound alone: MRSA252, 48 hours, in the absence of the other compound
Description: as §1, §2

[4] = tested on: Staphylococcus aureus strains MSSA476 and MRSA252; experiment: Microtitre plate growth inhibition with dermaseptin s3(1-16) or magainin 2 and lysostaphin (Examples 3, 4); format: cell-based; details: either strain, up to 50 μg ml^−1

For “lysostaphin: 27 kDa zinc-dependent metallopeptidase (glycylglycine endopeptidase) secreted by Staphylococcus simulans and S. staphylolyticus”, the reduction in numbers (MRSA252; 0.06 μg ml^−1 lysostaphin, 30 minutes) was 0.5 log, the “effect on viable cell numbers” value (MRSA252; lysostaphin alone, 0.01 to 0.1 μg ml, 30 minutes) was “minor decrease in viable cell numbers” and the “zone of inhibition, agent alone” value ([1]; disk with 5 μg lysostaphin) was “some minimal inhibition”. For the same substance, the “concentration providing an inhibitory effect, compound alone” value ([2]; MSSA476, 48 hours, in the absence of the other compound) was “above 0.75 μg/ml”, the MIC ([2]; MSSA476, lysostaphin alone) was “approximately 0.75 μg/ml” and the “concentration needed for inhibition, compound alone” value [3] was “above 0.45 μg/ml”. The MIC ([3]; MRSA252, lysostaphin alone) was “approximately 0.45 μgml”.

For Magainin 2, the “inhibitory effect of the peptide alone” value [4] was “little inhibitory effect”.

“ranalexin: 20 amino acid bullfrog peptide FLGGLIKIVPAMICAVTKKC (SEQ ID NO 1) with a single intramolecular disulphide bond (FLGGLIKIVPAMICAVTKKC; disulfide 14-20 (inferred); listed as Rana catesbeiana)” was tested, and the effect on viability (MRSA252; ranalexin alone up to 10 μg ml^−1, 30 minutes) was “no detectable effect on viability”, the “zone of inhibition, agent alone” value ([1]; disk with 20 μg ranalexin) was “some minimal inhibition” and the “concentration needed for inhibition, compound alone” value [3] was “above 40 μg/ml”.
